Drawing on US20100160255A1, “SPIRO-CYCLIC COMPOUND” (Takeda Pharmaceutical Company Limited, priority 2005, published 2010), this text covers IC50 for 13 compounds.

In general, IC50 refers to the concentration that inhibits the measured activity by half.

One test has as its target T1, human ACC1 (Homo sapiens, UniProt Q13085).
T1 construct: made in house; host or cells: SF-9 insect cells, recombinant baculovirus BAC-ACC1
The test is described as follows: ACC1 inhibitory activity (malachite green absorbance assay, recombinant enzyme). It is filed as biochemical. The note with it: Table 8; recombinant human ACC1; 30° C.; absorbance 620 nm; read-out: IC50 (ACC1 inhibitory activity). How it is done:
The ACC1 inhibitory activity of the compound of the present invention was evaluated by the following method.
Human ACC1 gene was cloned by PCR using human liver cDNA library (Clontech) as a template, and Primer 1 and Primer 2 shown below. Primer 1 and Primer 2 were prepared by adding recognition sequence of restriction enzymes SalI and NotI based on the information of the base sequence (Genbank Accession U19822) of human ACC1 gene.
PCR was performed using Pyrobest DNA polymerase (TAKARA BIO INC.). The obtained PCR product was cloned to pT7 Blue vector (Novagen) which was, after confirmation of the base sequence, digested with restriction enzymes SalI and NotI. The obtained DNA fragment was inserted into pFAST-BacHTc (Invitrogen) digested with restriction enzymes SalI and NotI to give expression plasmid ACC1/pFAST-BacHTc.
Using the expression plasmid and BAC-TO-BAC Baculovirus Expression System (Invitrogen), virus stock BAC-ACC1 of recombinant Baculovirus was prepared.
SF-9 cells (Invitrogen) were sown at 1×10^6 cells/mL to insect cell culture medium (1 L, Sf-900II SFM medium (Invitrogen) containing 10% fetal bovine serum (Trace), 50 mg/L gentamicin (Invitrogen) and 0.1% Pluronic F-68 (Invitrogen)), and shaking culture was performed using a 2 L volume Erlenmeyer flask at 27° C., 100 rpm.
After culturing for 24 hr, the recombinant Baculovirus BAC-ACC1 (10 mL) was added, and the mixture was further cultured for 3 days. The culture medium was centrifuged at 1000×g for 5 min to give virus-infected cells. The infected cells were washed with phosphate buffered saline (Invitrogen) and centrifuged under the same conditions, and the obtained cells were cryopreserved at −80° C.
The cryopreserved cells were thawed in ice, suspended in 25 mM HEPES buffer (100 mL, pH 7.5) containing 10% Glycerol, 0.13 M NaCl, 1 mM EDTA, 25 mM sodium β-glycerophosphate, 1 mM sodium orthovanadate, added with Complete Protease Inhibitor (Boehringer). The obtained suspension was homogenized 3 times with a Polytron homogenizer (Kinematica) at 20,000 rpm for 30 seconds. The obtained cell disrupt solution was clarified by centrifugation at 185700×g for 50 min and filtrated using a 0.45 μm filter. The filtrate was passed through a column packed with Ni-NTA Super Flow Gel (QIAGEN, 12 mL) at a flow rate of about 5 mL/min. The column was washed with buffer A (50 mM HEPES containing 0.3M NaCl, pH 7.5), further washed with buffer A containing 20 mM Imidazole, and eluted with buffer A containing 100 mM Imidazole. The eluate was concentrated with Vivaspin 20 (Vivascience) having a molecular weight cut off of 30 K. The obtained concentrate was dialyzed using Sephadex G-25 (Amersham Bioscience K.K., 358 mL) equilibrated with 50 mM HEPES (pH7.5) containing 10 mM MgCl2, 2 mM dithiothreitol, 10 mM tripotassium citrate and 0.3M NaCl. The dialysate was concentrated with Vivaspin 20 (Vivascience) having a molecular weight cut off of 30 K and the concentrate was filtered through a 0.22 μm filter to give ACC1. The obtained ACC1 was cryopreserved at −80° C.
ACC1 (0.93 mg/ml) obtained in (2) above was diluted to a concentration of 8 μg/ml with an enzyme reaction buffer (50 mM HEPES (pH7.5), 10 mM MgCl2, 10 mM tripotassium citrate, 2 mM dithiothreitol, 0.75 mg/ml fatty acid free BSA), and added to each well of a 384 well assay plate (Nunc 265196) by 10 μl. […]

A further test deals with T2, human ACC2 (Homo sapiens, UniProt O00763).
T2 construct: made in house; host or cells: SF-9 insect cells, recombinant baculovirus BAC-ACC2(Nd)
T2 sequence (O00763 117-2458 limits assumed): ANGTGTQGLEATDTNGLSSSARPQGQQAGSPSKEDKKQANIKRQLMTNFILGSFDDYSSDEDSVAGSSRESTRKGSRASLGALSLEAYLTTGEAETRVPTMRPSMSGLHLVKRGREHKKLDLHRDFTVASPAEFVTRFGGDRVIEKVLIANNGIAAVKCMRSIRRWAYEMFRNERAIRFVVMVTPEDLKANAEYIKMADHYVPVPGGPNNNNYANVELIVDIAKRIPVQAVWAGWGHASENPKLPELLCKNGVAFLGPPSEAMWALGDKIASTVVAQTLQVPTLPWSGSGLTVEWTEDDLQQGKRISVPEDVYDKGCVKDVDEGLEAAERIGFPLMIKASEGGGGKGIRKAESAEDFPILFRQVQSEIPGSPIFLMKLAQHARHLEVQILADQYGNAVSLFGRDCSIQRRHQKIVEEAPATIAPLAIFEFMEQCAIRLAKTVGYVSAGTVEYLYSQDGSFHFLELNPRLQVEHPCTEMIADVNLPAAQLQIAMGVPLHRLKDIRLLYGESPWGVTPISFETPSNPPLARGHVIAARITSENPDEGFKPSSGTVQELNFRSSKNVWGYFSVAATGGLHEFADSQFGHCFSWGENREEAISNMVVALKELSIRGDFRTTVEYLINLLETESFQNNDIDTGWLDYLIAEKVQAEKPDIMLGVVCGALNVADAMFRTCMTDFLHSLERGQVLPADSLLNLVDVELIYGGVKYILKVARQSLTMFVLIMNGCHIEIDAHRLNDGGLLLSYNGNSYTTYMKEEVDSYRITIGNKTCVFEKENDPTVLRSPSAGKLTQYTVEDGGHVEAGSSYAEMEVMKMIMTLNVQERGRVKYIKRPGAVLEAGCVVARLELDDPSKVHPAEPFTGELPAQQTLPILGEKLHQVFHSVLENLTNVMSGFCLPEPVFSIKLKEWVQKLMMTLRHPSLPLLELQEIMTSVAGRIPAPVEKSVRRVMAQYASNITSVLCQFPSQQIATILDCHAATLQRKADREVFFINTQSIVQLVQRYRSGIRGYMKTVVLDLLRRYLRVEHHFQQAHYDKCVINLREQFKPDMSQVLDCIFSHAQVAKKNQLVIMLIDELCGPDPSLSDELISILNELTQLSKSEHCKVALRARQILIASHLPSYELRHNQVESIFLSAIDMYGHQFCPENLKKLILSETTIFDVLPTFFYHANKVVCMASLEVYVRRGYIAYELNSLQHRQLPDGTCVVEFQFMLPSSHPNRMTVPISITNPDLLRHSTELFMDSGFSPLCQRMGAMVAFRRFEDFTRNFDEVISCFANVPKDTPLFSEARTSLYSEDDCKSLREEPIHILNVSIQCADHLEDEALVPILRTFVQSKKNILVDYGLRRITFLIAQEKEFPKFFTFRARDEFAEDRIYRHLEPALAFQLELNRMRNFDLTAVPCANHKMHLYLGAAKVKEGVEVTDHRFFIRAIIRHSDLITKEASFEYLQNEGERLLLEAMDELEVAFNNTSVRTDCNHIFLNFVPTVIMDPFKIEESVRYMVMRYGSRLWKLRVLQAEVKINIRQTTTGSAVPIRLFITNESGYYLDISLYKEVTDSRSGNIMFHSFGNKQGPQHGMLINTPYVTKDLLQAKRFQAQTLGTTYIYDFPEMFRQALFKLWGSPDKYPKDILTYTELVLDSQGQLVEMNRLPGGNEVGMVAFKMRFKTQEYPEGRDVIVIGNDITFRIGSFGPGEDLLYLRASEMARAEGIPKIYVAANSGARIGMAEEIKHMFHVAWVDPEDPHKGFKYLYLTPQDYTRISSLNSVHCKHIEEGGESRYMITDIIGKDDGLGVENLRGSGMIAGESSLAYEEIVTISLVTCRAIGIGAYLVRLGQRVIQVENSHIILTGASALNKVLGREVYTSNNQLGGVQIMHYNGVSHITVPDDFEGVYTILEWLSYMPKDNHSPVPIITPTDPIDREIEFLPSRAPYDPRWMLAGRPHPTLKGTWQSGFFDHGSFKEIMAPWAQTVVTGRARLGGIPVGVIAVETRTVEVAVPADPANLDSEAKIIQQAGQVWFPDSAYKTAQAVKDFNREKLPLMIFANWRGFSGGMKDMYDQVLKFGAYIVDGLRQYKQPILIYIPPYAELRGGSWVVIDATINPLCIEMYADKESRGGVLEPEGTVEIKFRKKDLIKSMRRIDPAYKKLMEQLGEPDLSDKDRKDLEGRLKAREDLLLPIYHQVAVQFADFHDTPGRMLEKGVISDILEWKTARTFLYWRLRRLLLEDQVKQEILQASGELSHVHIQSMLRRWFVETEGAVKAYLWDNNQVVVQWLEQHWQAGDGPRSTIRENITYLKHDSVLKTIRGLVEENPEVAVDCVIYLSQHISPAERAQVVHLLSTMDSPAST
The test is described as follows: ACC2 inhibitory activity (malachite green absorbance assay, recombinant ACC2(Nd)). It counts as biochemical. Conditions: Table 9; recombinant human ACC2(Nd), N terminal deletion; 30° C.; absorbance 620 nm; read-out: IC50 (ACC2 inhibitory activity). The method, then:
The ACC2 inhibitory activity of the compound of the present invention was evaluated by the following method.
Human ACC2 gene was cloned by PCR using human skeletal muscle cDNA library (Clontech) as a template, and Primer 1 and Primer 2 shown below. Primer 1 and Primer 2 were prepared by adding recognition sequence of restriction enzymes SalI and XbaI based on the information of the base sequence (Genbank Accession U89344) of human ACC2 gene.
PCR was performed using Pyrobest DNA polymerase (TAKARA BIO INC.). The obtained PCR product was cloned to pT7 Blue vector (Novagen) which was, after confirmation of the base sequence, digested with restriction enzymes SalI and XbaI. The obtained DNA fragment was inserted into pFAST-BacHTa (Invitrogen) digested with restriction enzymes SalI and XbaI to give expression plasmid ACC2/pFAST-BacHTa.
A plasmid for expression of ACC2 free of mitochondrial targeting sequence was prepared by PCR using the expression plasmid as a template, and Primer 3 and Primer 4 shown below.
PCR was performed using Pyrobest DNA polymerase (TAKARA BIO INC.). The obtained PCR product was cloned to pT7 Blue vector (Novagen) which was, after confirmation of the base sequence, digested with restriction enzymes SalI and AflII. The obtained DNA fragment was inserted into pFAST-BacHTa (Invitrogen) digested with restriction enzymes SalI and AflII to give expression plasmid ACC2mito7/pFAST-BacHTa.
Using the expression plasmid and BAC-TO-BAC Baculovirus Expression System (Invitrogen), virus stock BAC-ACC2 of recombinant Baculovirus (N terminal deletion (hereinafter Nd)) was prepared.
SF-9 cells (Invitrogen) were sown at 0.5×10^6 cells/mL to insect cell culture medium (2 L, Sf-900II SFM medium (Invitrogen) containing 10% fetal bovine serum (Trace), 50 mg/L gentamicin (Invitrogen) and 0.1% Pluronic F-68 (Invitrogen)), and shaking culture was performed using a Wave Bioreactor (Wave) under the conditions of 27° C., 20 rpm, rocking angle of 6° and oxygen concentration of 30%.
On day 4 of the culture, 3 L of an insect cell culture medium was added, the rocking angle was set to 8°, and the cells were further cultured. On day 5 of the culture, the recombinant Baculovirus BAC-ACC2(Nd) (100 mL) was added, 5 L of the insect cell culture medium was further added, the rocking angle was set to 11°, and the cells were cultured for 3 days. The culture medium was centrifuged at 1000×g for 10 min to give virus-infected cells. The infected cells were washed with phosphate buffered saline (Invitrogen) and centrifuged under the same conditions, and the obtained cells were cryopreserved at −80° C.
The cryopreserved cells were thawed in ice, suspended in 25 mM HEPES buffer (900 mL, pH 7.5) containing 10% Glycerol, 0.13 M NaCl, 1 mM EDTA, 25 mM sodium β-glycerophosphate, 1 mM sodium orthovanadate, added with Complete Protease Inhibitor (Boehringer). The obtained suspension was homogenized 3 times with a Polytron homogenizer (Kinematica) at 20,000 rpm for 30 seconds. The obtained cell disrupt solution was clarified by centrifugation at 31000×g for 60 min and filtrated using a 0.45 μm filter. The filtrate was passed through a column packed with Ni-NTA Super Flow Gel (QIAGEN, 60 mL) at a flow rate of about 5 mL/min. The column was washed with buffer A (50 mM HEPES containing 0.3M NaCl, pH 7.5), further washed with buffer A containing 20 mM Imidazole, and eluted with buffer A containing 100 mM Imidazole. The eluate was concentrated with Vivaspin 20 (Vivascience) having a molecular weight cut off of 30 K. The obtained concentrate was dialyzed against 50 mM HEPES (pH7.5) containing 10 mM MgCl2, 2 mM dithiothreitol, 10 mM tripotassium citrate and 0.3M NaCl. The dialysate was filtered through a 0.22 μm filter to give ACC2(Nd). The obtained ACC2(Nd) was cryopreserved at −80° C. […]

Regarding `CCN1C(=O)OC2(CCCN(C3CCN(C(=O)c4c(NC(N)=O)sc5ccccc45)CC3)C2)C1=O` (centres unmarked) [Example 229, 1-(3-{[4-(3-ethyl-2,4-dioxo-1-oxa-3,7-diazaspiro[4.5]dec-7-yl)piperidin-1-yl]carbonyl}-1-benzothien-2-yl)urea], the half-inhibitory concentration (IC50) was determined as 290 nM on human ACC1 and 49 nM on human ACC2.
The matching figures for `CCNC(=O)Nc1sc(-c2ccccn2)cc1C(=O)N1CCC(N2CCCC3(C2)OC(=O)N(CC)C3=O)CC1` (centres unmarked) [Example 245, 1-ethyl-3-(3-{[4-(3-ethyl-2,4-dioxo-1-oxa-3,7-diazaspiro[4.5]dec-7-yl)piperidin-1-yl]carbonyl}-5-(pyridin-2-yl)-2-thienyl)urea]: 980 nM and 46 nM.
On the same counts, the results for `CCNC(=O)Nc1cnc(-c2ccccc2)cc1C(=O)N1CCC(N2CCCC3(C2)CC(C)(C)OC3=O)CC1` (centres unmarked) [Example 301, N-(4-{[4-(3,3-dimethyl-1-oxo-2-oxa-7-azaspiro[4.5]dec-7-yl)piperidin-1-yl]carbonyl}-6-phenylpyridin-3-yl)-N′-ethylurea] are 1400 nM and 89 nM.
The matching figures for `CCNC(=O)Nc1sc2ccccc2c1C(=O)N1CCC(N2CCCC3(CC(=O)NC3=O)C2)CC1` (centres unmarked) [Example 311, N-(3-{[4-(1,3-dioxo-2,7-diazaspiro[4.5]dec-7-yl)piperidin-1-yl]carbonyl}-1-benzothien-2-yl)-W-ethylurea]: 400 nM and 31 nM.
For the compound `CCNC(=O)Nc1sc2ccccc2c1C(=O)N1CCC(N2CCCC3(C2)OC(=O)N(CC)C3=O)CC1` (centres unmarked) [Example 327, N-ethyl-N′-(3-{[4-(3-ethyl-2,4-dioxo-1-oxa-3,7-diazaspiro[4.5]dec-7-yl)piperidin-1-yl]carbonyl}-1-benzothien-2-yl)urea], the concentration for half-maximal inhibition (IC50) amounted to 200 nM on human ACC1 and 19 nM at human ACC2.
For the compound `CC(C)N1C(=O)OC2(CCCN(C3CCN(C(=O)c4c(NC(N)=O)sc5ccccc45)CC3)C2)C1=O` (centres unmarked) [Example 335, N-(3-{[4-(3-isopropyl-2,4-dioxo-1-oxa-3,7-diazaspiro[4.5]dec-7-yl)piperidin-1-yl]carbonyl}-1-benzothien-2-yl)urea], the IC50 on human ACC1 came to 260 nM; on human ACC2, 31 nM.
For `CCN1CCC2(CCCN(C3CCN(C(=O)c4c(NC(=O)NC)sc5ccccc45)CC3)C2)C1=O` (centres unmarked) [Example 339, N-(3-{[4-(2-ethyl-1-oxo-2,7-diazaspiro[4.5]dec-7-yl)piperidin-1-yl]carbonyl}-1-benzothien-2-yl)-N′-methylurea], the IC50 is 300 nM at human ACC1 and 45 nM on human ACC2.
On the same counts, the results for `CCN1C(=O)CC2(CCCN(C3CCN(C(=O)c4c(NC(N)=O)sc5ccccc45)CC3)C2)C1=O` (centres unmarked) [Example 340, 1-(3-{[4-(2-ethyl-1,3-dioxo-2,7-diazaspiro[4.5]dec-7-yl)piperidin-1-yl]carbonyl)-1-benzothien-2-yl)urea] are 130 nM and 22 nM.
Take `CCCN1C(=O)OC2(CCCN(C3CCN(C(=O)c4c(NC(N)=O)sc5ccccc45)CC3)C2)C1=O` (centres unmarked) [Example 343, N-(3-{[4-(2,4-dioxo-3-propyl-1-oxa-3,7-diazaspiro[4.5]dec-7-yl)piperidin-1-yl]carbonyl}-1-benzothien-2-yl)urea]: the half-maximal inhibitory concentration (IC50) at human ACC1 was 340 nM; at human ACC2, 30 nM.
On the same counts, the results for `CCN1C(=O)OC2(CCCN(C3CCN(C(=O)c4c(NC(=O)NC)sc5ccccc45)CC3)C2)C1=O` (centres unmarked) [Example 347, N-(3-{[4-(3-ethyl-2,4-dioxo-1-oxa-3,7-diazaspiro[4.5]dec-7-yl)piperidin-1-yl]carbonyl)-1-benzothien-2-yl)-N′-methylurea] are 310 nM and 34 nM.
As for `CCCN1CCC2(CCCN(C3CCN(C(=O)c4c(NC(N)=O)sc5ccccc45)CC3)C2)C1=O` (centres unmarked) [Example 352, N-(3-{[4-(1-oxo-2-propyl-2,7-diazaspiro[4.5]dec-7-yl)piperidin-1-yl]carbonyl}-1-benzothien-2-yl)urea], the IC50 was 290 nM on human ACC1 and 41 nM on human ACC2.
The matching figures for `CNC(=O)Nc1sc2ccccc2c1C(=O)N1CCC(N2CCCC3(CCN(C(C)C)C3=O)C2)CC1` (centres unmarked) [Example 360, N-(3-{[4-(2-isopropyl-1-oxo-2,7-diazaspiro[4.5]dec-7-yl)piperidin-1-yl]carbonyl}-1-benzothien-2-yl)-N′-methylurea]: 110 nM and 22 nM.
`CCN1C(=O)CC2(CCCN(C3CCN(C(=O)c4c(NC(=O)NC)sc5ccccc45)CC3)C2)C1=O` (centres unmarked) [Example 363, N-(3-{[4-(2-ethyl-1,3-dioxo-2,7-diazaspiro[4.5]dec-7-yl)piperidin-1-yl]carbonyl}-1-benzothien-2-yl)-N′-methylurea]: the IC50 was found to be 340 nM at human ACC1 and 56 nM on human ACC2.
